Assay results from patent US10449162B2, “Delivery of drug nanoparticles and methods of use thereof” (DFB Soria, LLC, priority 2015, dated 2019).
Read-outs that look alike come from different tables or passages of the source. One block for each molecule: values may come before it.

Legend:
[1] = Particle size of paclitaxel nanoparticles lots (ACCUSIZER 780); assay type: physicochemical; conditions: number-weighted differential distribution; nanoparticle API lot
Description: Max. Concentration: 9000 particles/mL, No. containers: 1, Sensor Range: Summation, Lower Detection Limit: 0.5 μm, Flow Rate: 30 mL/min, No. Analysis pulls: 4, Time between pulls: 1 sec, Pull volume: 10 mL, Tare Volume: 1 mL, Prime volume: 1 mL, Include First Pull: Not Selected.
Vortexed for 5-10 minutes and sonicated in a water batch for 1 minute.
Filled a plastic bottle with filtered (0.22 μm) 0.1% w/w SDS solution and analyzed the Background.

[2] = Specific surface area (BET isotherm); assay type: physicochemical; conditions: lots used in the formulas
Description: (§1) As used herein, the “specific surface area (SSA)” is the total surface area of the taxane nanoparticle per unit of taxane mass as measured by the Brunauer-Emmett-Teller (“BET”) isotherm by the following method: a known mass between 200 and 300 mg of the analyte is added to a 30 mL sample tube. […] The automated test is then carried out using the BETWIN® software package and the surface area of each sample is subsequently calculated. The bulk density measurement can be conducted by pouring the taxane nanoparticles into a graduated cylinder without tapping at room temperature, measuring the mass and volume, and calculating the bulk density.

[3] = Bulk density (not tapped); assay type: physicochemical; conditions: lots used in the formulas
Description: as §1

[4] = Observation of paclitaxel nanoparticle crystals in various substances and solutions (light microscopy); assay type: physicochemical
[5] = Solubility of paclitaxel in various solvents (HPLC); assay type: physicochemical
Description: For each solvent, about 2 g of the solvent was weighed into a clear glass vial.
Each vial was mixed with a stir bar on a magnetic stirrer for 2 hours at room temperature.
Each vial was then checked every 1-2 hours to see if the solution became clear.

skin inflammation models = conditions: topical treatment; nonclinical evaluations; cited from earlier work
[6] = methanol/water 15/85 (v/v), 37° C., pH 7, USP Apparatus II 75 rpm, PCT/US16/35993, cited from earlier work
[7] = in Aluminum sulfate 0.1-0.2% in water, 7 days, RT
[8] = in Ammonium lauryl sulfate 2% in water, 3 days, RT
[9] = in Benzalkonium chloride (50%) 2% in water, 7 days & 21 days, RT
[10] = in CARBOPOL ULTREZ 10 (with Ammonium hydroxide as neutralizer) 0.5% in water, 8 days & 21 days, RT
[11] = in Castor Oil 100%, 24 hrs & 9 days, RT
[12] = in Dimethicone, 1000 cSt 100%, 24 hrs & 6 days, RT
[13] = in FOMBLIN HC04 100%, 4, 7 & 13 days, RT
[14] = in Hydroxyethyl cellulose 1% in water, 7 days, RT
[15] = in Hydroxypropyl methylcellulose 1% in water, 3 days, RT
[16] = in Lecithin 1% in water, 24 hrs, RT
[17] = in Light Mineral Oil NF 100%, 3 days, RT & 40 C.
[18] = in Magnesium nitrate 5% in water, 3 days, RT
[19] = in Mannitol 5% in water, 7 days, RT
[20] = in Mineral Oil USP (heavy) 100%, 3 days, RT & 40 C
[21] = in PEG 400 10% in water, 22 days, RT & 60 C.
[22] = in Poloxamer 188 2% in water, 7 days, RT
[23] = in Poloxamer 407 2% in water, 5 & 7 days, RT
[24] = in Polyoxyl 40 Hydrogenated Castor Oil (KOLLIPHOR RH40) 1% in water, 6 days, RT
[25] = in Polysorbate 80 0.5% in Saline, 7 days, RT & 60 C.
[26] = in Polysorbate 80 0.5% in water, 22 days, RT & 60 C.
[27] = in Povidone 1% in water, 7 days & 21 days, RT
[28] = in Proline 3% in water, 7 days, RT
[29] = in Purified Water 100%, 5 days, RT & 60 C.
[30] = in ST-Cyclomethicone 5 NF 100%, 24 hrs & 13 days, RT
[31] = in Saline 0.9% NaCl in water, 7 days, RT & 60 C.
[32] = in Sodium lauryl sulfate 2% in water, 7 days, RT
[33] = in Sodium phosphate monobasic 0.75% in water, 7 days, RT
[34] = in Sorbitol 5% in water, 7 days, RT
[35] = in Vitamin E TPGS 0.5% in water, 6 days, RT
[36] = in Zinc acetate […] in water, 7 days, RT

Particle size, Mean [1]: 0.861 μm
Particle size, Median [1]: 0.710 μm
Particle size, Mode [1]: 0.572 μm
Specific surface area (SSA) [2]: 41.24 m^2/g
Bulk density (not-tapped) [3]: 0.05 g/mL
Compound: CC(=O)O[C@H]1C(=O)[C@@]2(C)[C@H]([C@H](OC(=O)c3ccccc3)[C@]3(O)C[C@H](OC(=O)[C@H](O)[C@@H](NC(=O)c4ccccc4)c4ccccc4)C(C)=C1C3(C)C)[C@]1(OC(C)=O)CO[C@@H]1C[C@@H]2O [Paclitaxel nanoparticles lot used in formulas listed in Tabl] [listing 1 of 2 here]

Particle size, Mean [1]: 0.83 μm
Specific surface area (SSA) [2]: 26.72 m^2/g
Bulk density (not-tapped) [3]: 0.09 g/mL
Compound: CC(=O)O[C@H]1C(=O)[C@@]2(C)[C@H]([C@H](OC(=O)c3ccccc3)[C@]3(O)C[C@H](OC(=O)[C@H](O)[C@@H](NC(=O)c4ccccc4)c4ccccc4)C(C)=C1C3(C)C)[C@]1(OC(C)=O)CO[C@@H]1C[C@@H]2O [Paclitaxel nanoparticles lot used in formulas listed in Tabl] [listing 2 of 2 here]

Crystal size (light microscopy) [4, 7]: > 5 μm
Needle shaped crystals observed? (visual observation by light microscopy) [4, 7]: Yes
Crystal size (light microscopy) [4, 8]: > 5 μm
Needle shaped crystals observed? (visual observation by light microscopy) [4, 8]: Yes
Crystal size (light microscopy) [4, 9]: < 5 μm
Needle shaped crystals observed? (visual observation by light microscopy) [4, 9]: No
Crystal size (light microscopy) [4, 10]: < 5 μm
Needle shaped crystals observed? (visual observation by light microscopy) [4, 10]: No
Crystal size (light microscopy) [4, 11]: < 5 μm
Needle shaped crystals observed? (visual observation by light microscopy) [4, 11]: No
Crystal size (light microscopy) [4, 12]: < 5 μm
Needle shaped crystals observed? (visual observation by light microscopy) [4, 12]: No
Crystal size (light microscopy) [4, 13]: < 5 μm
Needle shaped crystals observed? (visual observation by light microscopy) [4, 13]: No
Crystal size (light microscopy) [4, 14]: > 5 μm
Needle shaped crystals observed? (visual observation by light microscopy) [4, 14]: Yes
Crystal size (light microscopy) [4, 15]: > 5 μm
Needle shaped crystals observed? (visual observation by light microscopy) [4, 15]: Yes
Crystal size (light microscopy) [4, 16]: > 10 μm
Needle shaped crystals observed? (visual observation by light microscopy) [4, 16]: Yes
Crystal size (light microscopy) [4, 17]: < 5 μm
Needle shaped crystals observed? (visual observation by light microscopy) [4, 17]: No
Crystal size (light microscopy) [4, 18]: > 5 μm
Needle shaped crystals observed? (visual observation by light microscopy) [4, 18]: Yes
Crystal size (light microscopy) [4, 19]: > 5 μm
Needle shaped crystals observed? (visual observation by light microscopy) [4, 19]: Yes
Crystal size (light microscopy) [4, 20]: < 5 μm
Needle shaped crystals observed? (visual observation by light microscopy) [4, 20]: No
Crystal size (light microscopy) [4, 21]: > 5 μm
Needle shaped crystals observed? (visual observation by light microscopy) [4, 21]: Yes
Crystal size (light microscopy) [4, 22]: > 5 μm
Needle shaped crystals observed? (visual observation by light microscopy) [4, 22]: Yes
Crystal size (light microscopy) [4, 23]: < 5 μm
Needle shaped crystals observed? (visual observation by light microscopy) [4, 23]: No
Crystal size (light microscopy) [4, 24]: < 5 μm
Needle shaped crystals observed? (visual observation by light microscopy) [4, 24]: Yes
Crystal size (light microscopy) [4, 25]: > 5 μm
Needle shaped crystals observed? (visual observation by light microscopy) [4, 25]: Yes
Crystal size (light microscopy) [4, 26]: < 5 μm
Needle shaped crystals observed? (visual observation by light microscopy) [4, 26]: Yes
Crystal size (light microscopy) [4, 27]: < 5 μm
Needle shaped crystals observed? (visual observation by light microscopy) [4, 27]: Yes
Crystal size (light microscopy) [4, 28]: > 5 μm
Needle shaped crystals observed? (visual observation by light microscopy) [4, 28]: Yes
Crystal size (light microscopy) [4, 29]: > 5 μm
Needle shaped crystals observed? (visual observation by light microscopy) [4, 29]: Yes
Crystal size (light microscopy) [4, 30]: < 5 μm
Needle shaped crystals observed? (visual observation by light microscopy) [4, 30]: No
Crystal size (light microscopy) [4, 31]: > 10 μm
Needle shaped crystals observed? (visual observation by light microscopy) [4, 31]: Yes
Crystal size (light microscopy) [4, 32]: > 5 μm
Needle shaped crystals observed? (visual observation by light microscopy) [4, 32]: Yes
Crystal size (light microscopy) [4, 33]: > 5 μm
Needle shaped crystals observed? (visual observation by light microscopy) [4, 33]: Yes
Crystal size (light microscopy) [4, 34]: > 5 μm
Needle shaped crystals observed? (visual observation by light microscopy) [4, 34]: Yes
Crystal size (light microscopy) [4, 35]: < 5 μm
Needle shaped crystals observed? (visual observation by light microscopy) [4, 35]: Yes
Crystal size (light microscopy) [4, 36]: > 5 μm
Needle shaped crystals observed? (visual observation by light microscopy) [4, 36]: Yes
Crystal growth ([4]; in any of the hydrophobic carriers): did not grow
Crystal growth ([4]; in aqueous solutions of benzalkonium chloride, CARBOPOL ULTREZ 10, or poloxamer 407): did not grow
Compound: CC(=O)O[C@H]1C(=O)[C@@]2(C)[C@H]([C@H](OC(=O)c3ccccc3)[C@]3(O)C[C@H](OC(=O)[C@H](O)[C@@H](NC(=O)c4ccccc4)c4ccccc4)C(C)=C1C3(C)C)[C@]1(OC(C)=O)CO[C@@H]1C[C@@H]2O [Paclitaxel nanoparticles, paclitaxel]

Paclitaxel Solubility at RT ([5]; in Benzyl Alcohol, NF): 17.02% w/w
Paclitaxel Solubility at RT ([5]; in Diethylene Glycol Monoethyl Ether, NF (TRANSCUTOL P)): 33.10% w/w
Paclitaxel Solubility at RT ([5]; in Diisopropyl Adipate (CERAPHYL 230)): 3.51% w/w
Paclitaxel Solubility at RT ([5]; in Dimethyl Isosorbide): 38.22% w/w
Paclitaxel Solubility at RT ([5]; in Hexylene Glycol): 4.07% w/w
Paclitaxel Solubility at RT ([5]; in Isopropyl Myristate, NF): 0.048% w/w
Paclitaxel Solubility at RT ([5]; in Medium Chain Triglycerides, NF): 0.32% w/w
Paclitaxel Solubility at RT ([5]; in Mineral Oil, USP (heavy)): 0.3 ppm
Paclitaxel Solubility at RT ([5]; in Polyethylene Glycol 400, NF): 22.30% w/w
Paclitaxel Solubility at RT ([5]; in Propylene Carbonate): 4.74% w/w
Paclitaxel Solubility at RT ([5]; in Propylene Glycol, USP): 0.88% w/w
Paclitaxel Solubility at RT ([5]; in Purified Water, USP): <0.05 ppm
Paclitaxel Solubility at RT ([5]; in Purified Water, USP, listed as paclitaxel): less than 0.05 ppm
Paclitaxel Solubility at RT ([5]; in Super Refined Oleic Acid, NF): 0.041% w/w
Paclitaxel Solubility at RT ([5]; in Super Refined Oleyl Alcohol, NF): 0.38% w/w
Compound: CC(=O)O[C@H]1C(=O)[C@@]2(C)[C@H]([C@H](OC(=O)c3ccccc3)[C@]3(O)C[C@H](OC(=O)[C@H](O)[C@@H](NC(=O)c4ccccc4)c4ccccc4)C(C)=C1C3(C)C)[C@]1(OC(C)=O)CO[C@@H]1C[C@@H]2O [Paclitaxel, paclitaxel]
Effect in skin inflammation models (skin inflammation models): reduced inflammation, swelling, and erythema

Compound: CC(=O)O[C@@]12CO[C@@H]1C[C@H](O)[C@@]1(C)C(=O)[C@H](O)C3=C(C)[C@@H](OC(=O)[C@H](O)[C@@H](NC(=O)OC(C)(C)C)c4ccccc4)C[C@@](O)([C@@H](OC(=O)c4ccccc4)[C@H]21)C3(C)C [docetaxel nanoparticles produced by milling] [reference compound]
Dissolution rate, % dissolved in 30 minutes ([6]; listed as docetaxel nanoparticles made by milling): 9%

Compound: CC(=O)O[C@@]12CO[C@@H]1C[C@H](O)[C@@]1(C)C(=O)[C@H](O)C3=C(C)[C@@H](OC(=O)[C@H](O)[C@@H](NC(=O)OC(C)(C)C)c4ccccc4)C[C@@](O)([C@@H](OC(=O)c4ccccc4)[C@H]21)C3(C)C [docetaxel nanoparticles, docetaxel]
Dissolution rate, % dissolved in 30 minutes [6]: 27%
